Laboratory results taken from patent publication US4668677A, “4-phenylphthalazine derivatives, their preparation and their use as pharmaceuticals” (Mitsubishi Chemical Industries Limited, priority 1984, dated 1987).

Experiments:
[1] = system: candate nucleus; test: Activity to increase topical cerebral blood flow, candate nucleus (heat clearance method); type: in vivo, rabbit (male New Zealand White); conditions: change in blood flow expressed in terms of voltage
Experimental: (§1) The compound of this invention was dissolved in an aqueous solution containing 1% tartaric acid and 1% dimethylacetamide, while papaverine hydrochloride dissolved in 0.9% physiological saline. These test compounds were intravenously given through a residual polyethylene tube within femoral vein.
(§2) Physiol. Scand., 67, 1 (1966); "Kokyu to Junkan" (in Japanese), 15, 435 (1967); the Journal of the Pharmacological Society of Japan, 71, 709 (1975)]. Simultaneously, blood pressure in femoral artery was also determined. Preparation and administration of test compounds were carried out in the same manner as in the above item (6).

[2] = system: cerebral cortex; test: Activity to increase topical cerebral blood flow, cerebral cortex (heat clearance method); type: in vivo, rabbit (male New Zealand White); conditions: change in blood flow expressed in terms of voltage
Experimental: as §1, §2

[3] = system: blood platelets; test: Activity to inhibit the blood platelet adhesion (glass bead method); type: cell-based, rat (male Wistar-ST strain); conditions: Rattus norvegicus, read-out: Inhibitory rate of blood platelet adhesion
Experimental: As experimental animals, there were used male Wistar-ST strain rats of an average body weight of 250 g.
Blood samples were obained from carotid arteries by means of a cannule and immediately admixed with sodium citrate at a volume ratio of 1/10. The mixture was centrifuged at 200×g over 15 minutes to collect the supernatant (platelet-rich plasma: PRP). The PRP was then centrifuged at 2000×g over 15 minutes and the supernatant was removed to give blood platelet pellet.
To the resultant blood platelet pellet was added a 15 mM tris.HCl buffer solution with EDTA (pH 7.4) to resuspend blood platelets therein and then one applied centrifugation at 2000×g over 15 minutes and the supernatant was removed. The resultant washed blood platelets were added to a 0.3 mM tris.HCl buffer solution with CaCl2 (pH 7.4) to resuspend blood platelets therein, whereby there was prepared a blood platelet suspension adjusted to five hundred thousand platelets/μl. To 2 ml of the blood platelet suspension were added 2 μl of a methanolic solution of each test compound and incubation was effected for 15 minutes. Then blood platelet adhesion was determined according to a glass bead method by using a timing blood suction apparatus for determining the blood platelet adhesion.
The number of blood platelets was counted by means of a blood platelet counter.
Inhibitory rate of blood platelet adhesion was calculated according to the following equation: [formula] A: Blood platelet number in the blood platelet suspension passed through a control column
B: Blood platelet number in the blood platelet suspension passed through a bead-packing column

[4] = system: femoral artery; test: Blood pressure in femoral artery, coronary blood flow test; type: in vivo, dog (mongrel adult dog)
Experimental: as §1
(§3) A mongrel adult dog was anesthetized with pentobarbital sodium and then underwent thoracotomy under artificial respiration. After cardiac membrane was removed, the origin of branches in left coronary artery was removed from its peripheral tissues and blood flow volume of coronary artery was measured via the probe for determining blood flow which was attached to said origin. Simultaneously, blood pressure in femoral artery was measured. Preparation and administration of test compounds were carried out in the same manner as in the above item (6).

[5] = system: coronary artery; test: Activity to increase blood flow volume in coronary artery; type: in vivo, dog (mongrel adult dog)
Experimental: as §1, §3

[6] = system: femoral artery; test: Action on blood pressure in femoral artery; type: in vivo, rabbit (male New Zealand White)
Experimental: Male New Zealand White rabbits (body weight of 2.8 Kg to 3.5 Kg) were used and anesthetized with pentobarbital sodium. Blood flow volumes in the carotid artery and femoral artery were measured and recorded via a non-blood observing type of a probe for measuring blood flow volume. Also, blood pressure in femoral artery was simultaneously measured and recorded with measurement of blood flow.
as §1

[7] = system: Thoracic aorta; test: Calcium antagonistic activity (relaxation of thoracic aorta); type: cell-based, rat (male Wistar strain); conditions: Rattus norvegicus, 10 mM CaCl2
Experimental: Thoracic aorta was removed from male Wistar strain rats with a body weight of 350 g to 450 g and then spiral-shaped pieces of aorta were prepared therefrom. […] Thereafter, samples were further stabilized in Krebs-Henseleit solution containing no CaCl2 over 1 hour and then in a 80 mM KCl nutritive liquid wherein NaCl was exchanged with an equimolar KCl (depolarized liquid) over a further one hour. Then, samples were washed with the depolarized liquid and loaded with a static tension of 1.0 g. When CaCl2 was added to the nutritive liquid so as to reach a final concentration of 10 mM, tension was produced in samples and, after 15-20 minutes from the addition of CaCl2, the maximum tension was obtained. At this point, test compounds were applied and relaxing activity of test compounds was evaluated. Tension was determined in equal dimension.
Relaxation rate was calculated according to the following equation: [formula] A: Maximum tension generated B: Generated tension retained after administration of test compound
All test compounds were given in the form of a solution in dimethyl sulfoxide at a dose of 0.1 ml, whereupon a final concentration of dimethyl sulfoxide itself was adjusted to 0.5 V/V %.

[8] = system: femoral artery; test: Blood pressure in femoral artery, topical cerebral blood flow test; type: in vivo, rabbit (male New Zealand White)
Experimental: as §1, §2

| Structure (SMILES) | Blood pressure in femoral artery, A: Before administration ([6]; 0.01 mg/kg i.v.) [mmHg] | Blood pressure in femoral artery, B: After administration ([6]; 0.01 mg/kg i.v.) [mmHg] | Blood pressure in femoral artery, E: Lowering degree ([6]; 0.01 mg/kg i.v.) [mmHg] | Blood pressure in femoral artery, F: Lowering rate ([6]; 0.01 mg/kg i.v.) [%] | Blood pressure in femoral artery, A: Before administration ([6]; 0.05 mg/kg i.v.) [mmHg] | Blood pressure in femoral artery, B: After administration ([6]; 0.05 mg/kg i.v.) [mmHg] | Blood pressure in femoral artery, E: Lowering degree ([6]; 0.05 mg/kg i.v.) [mmHg] | Blood pressure in femoral artery, F: Lowering rate ([6]; 0.05 mg/kg i.v.) [%] | Blood pressure in femoral artery, A: Before administration ([6]; 0.1 mg/kg i.v.) [mmHg] | Blood pressure in femoral artery, B: After administration ([6]; 0.1 mg/kg i.v.) [mmHg] | Blood pressure in femoral artery, E: Lowering degree ([6]; 0.1 mg/kg i.v.) [mmHg] | Blood pressure in femoral artery, F: Lowering rate ([6]; 0.1 mg/kg i.v.) [%] | Blood pressure in femoral artery, A: Before administration ([6]; 0.5 mg/kg i.v.) [mmHg] | Blood pressure in femoral artery, B: After administration ([6]; 0.5 mg/kg i.v.) [mmHg] | Blood pressure in femoral artery, E: Lowering degree ([6]; 0.5 mg/kg i.v.) [mmHg] | Blood pressure in femoral artery, F: Lowering rate ([6]; 0.5 mg/kg i.v.) [%] | other results |
| --- | --- | --- | --- | --- | --- | --- | --- | --- | --- | --- | --- | --- | --- | --- | --- | --- | --- |
| CC(C)(C)CNc1nnc(-c2ccccc2)c2ccccc12 [Compound 1, 1-neopentylamino-4-phenylphthalazine] | 96.0 | 92.3 | 3.7 | 3.8 | 91.7 | 81.7 | 10.0 | 10.9 | 90.0 | 81.7 | 8.3 | 8.8 | 86.7 | 63.2 | 23.5 | 30.1 | Increase in topical blood flow volume, Candate nucleus ([1]; 0.3 mg/Kg i.v.): 0.63 ± 0.08 Δ μV; Increase in topical blood flow volume, Candate nucleus ([1]; 1 mg/Kg i.v.): 0.85 ± 0.25 Δ μV; Increase in topical blood flow volume, Cerebral cortex ([2]; 0.3 mg/Kg i.v.): 1.03 ± 0.12 Δ μV; Increase in topical blood flow volume, Cerebral cortex ([2]; 1 mg/Kg i.v.): 2.05 ± 0.29 Δ μV; inhibition at 300 µM ([3]; 3·10^-4 M): 50.2%; inhibition at 30 µM ([3]; 3·10^-5 M): 40.8%; inhibition at 3 µM ([3]; 3·10^-6 M): 12.5%; inhibition at 0.3 µM ([3]; 3·10^-7 M): 8.2%; Lowering of blood pressure in femoral artery ([4]; 0.1 mg/Kg): 17.6%; Lowering of blood pressure in femoral artery ([4]; 0.3 mg/Kg): 29.4%; Blood flow volume in coronery artery, After administration ([5]; 0.1 mg/Kg): 28.8 mL/min; Blood flow volume in coronery artery, Before administration ([5]; 0.1 mg/Kg): 18.8 mL/min; Blood flow volume in coronery artery, Increase rate ([5]; 0.1 mg/Kg): 53.2%; Blood flow volume in coronery artery, After administration ([5]; 0.3 mg/Kg): 37.5 mL/min; Blood flow volume in coronery artery, Before administration ([5]; 0.3 mg/Kg): 18.8 mL/min; Blood flow volume in coronery artery, Increase rate ([5]; 0.3 mg/Kg): 99.5%; inhibition at 3 µM ([7]; final concentration 3 μM): 8.5%; inhibition at 10 µM ([7]; final concentration 10 μM): 30%; Lowering of blood pressure in femoral artery ([8]; 0.3 mg/Kg i.v.): 18.2 ± 0.98%; Lowering of blood pressure in femoral artery ([8]; 1 mg/Kg i.v.): 30.8 ± 3.2% |
| CCC(CC)Nc1nnc(-c2ccccc2)c2ccccc12 [Compound 2, 1-(1-ethylpropylamino)-4-phenylphthalazine] | 93.8 | 91.3 | 2.5 | 2.7 | 90.8 | 83.7 | 7.1 | 8.07 | 88.8 | 78.1 | 10.6 | 11.6 | 87.5 | 69.2 | 18.3 | 21.2 |  |
